Laboratory results from patent US20130231307A1, “NOVEL ANTIVIRAL ACYCLIC NUCLEOSIDE PHOSPHONATES” (CENTRE NATIONAL DE LA RECHERCHE SCIENTIFIQUE, priority 2010, published 2013).
Where two headings read alike, the source gives them in different places.

Columns and labels:
DNA viruses = type: cell-based
[1] = tested on: thymidine kinase-deficient VZV strain 07/1
[2] = tested on: herpes simplex virus type 1 (HSV-1) (KOS)
[3] = tested on: HSV-1 TK^− (KOS acyclovir resistant, ACV)
[4] = in vivo; cited from earlier work
UMP-CMP kinase (hUCK) = molecular target: T1, UMP-CMP kinase (hUCK) (Homo sapiens, UniProt P30085); conditions: cited from earlier work
T1 sequence (P30085 1-196): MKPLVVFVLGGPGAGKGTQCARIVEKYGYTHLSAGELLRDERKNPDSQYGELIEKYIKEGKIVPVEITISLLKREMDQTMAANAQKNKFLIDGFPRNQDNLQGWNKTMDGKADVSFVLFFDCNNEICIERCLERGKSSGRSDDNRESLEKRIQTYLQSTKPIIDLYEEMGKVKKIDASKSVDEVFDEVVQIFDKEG

## CC(C)(C)C(=O)OCOP(=O)(C/C=C\Cn1ccc(=O)[nH]c1=O)OCOC(=O)C(C)(C)C [Ia2]
DNA viruses; HEL cell cultures
  antiviral activity, [Z] versus corresponding [E] isomers: clearly less, or not antivirally active

## CC(C)(C)C(=O)OCOP(=O)(C/C=C/Cn1cc(Br)c(=O)[nH]c1=O)OCOC(=O)C(C)(C)C [Ie1, (E)-N^1-(4′-bis(POM)-phosphinyl-2′-butenyl)-5-bromo-uracil]
HSV-2 (G)
  inhibitory activity against HSV-2: most inhibitory
[1]
  antiviral activity against mutant TK-deficient VZV TK: pronounced antiviral activity
VZV strain OKA
  inhibitory activity against VZV: most inhibitory
[2]
  inhibitory activity against HSV-1: most inhibitory
[3]
  antiviral activity against mutant TK-deficient HSV-1 TK^−: pronounced antiviral activity

## CC(C)(C)C(=O)OCOP(=O)(C/C=C\Cn1cc(Br)c(=O)[nH]c1=O)OCOC(=O)C(C)(C)C [Ie2, (Z)—N^1-(4′-bis(POM)-phosphinyl-2′-butenyl)-5-bromo-uracil]
DNA viruses
  antiviral activity, [Z] versus corresponding [E] isomers: clearly less, or not antivirally active

## Nc1ncnc2c1ncn2CCOCP(=O)(O)OP(=O)(O)OP(=O)(O)O [PMEA-PP]
[4]
  half-life in the body: > 15 H

## Nc1ccn(C[C@@H](CO)OCP(=O)(O)O)c(=O)n1 [cidofovir]
UMP-CMP kinase (hUCK)
  substrate for hUCK: not a substrate for hUCK
